US20230099756A1, “METHODS OF USING ANTI-CD79B IMMUNOCONJUGATES TO TREAT DIFFUSE LARGE B-CELL LYMPHOMA” (Genentech, Inc., priority 2021, published 2023)
Where a SMILES comes first, the peptide text is derived from it. [ ]: non-standard residue; d: D form. The star is where a group is joined. Dolaproine = CO[C@@H]([C@@H]1CCCN1)[C@@H](C)C(=O)O; Dil = CC[C@H](C)[C@H](NC)[C@@H](CC(=O)O)OC; X1 = C[C@@H](N*)[C@@H](O)c1ccccc1; NMeV = CN[C@H](C(=O)O)C(C)C

What was measured:
Type in all cases: in vitro ADME
P-glycoprotein (P-gp) = P-glycoprotein (P-gp) (Homo sapiens, UniProt P08183); test: P-glycoprotein substrate and inhibitor status of MMAE
Excerpt: (§1) Based on a validated physiological-based PK model simulation, strong CYP3A4 inhibitors may increase the exposure (e.g., area under the concentration-time curve) of unconjugated MMAE by […] while acMMAE PK is not affected. Concomitant medications that are strong CYP3A4 inhibitors are considered cautionary as they may potentially lead to adverse reactions, which require close monitoring. […] Concomitant medications that are P-gp inhibitors are considered cautionary as they may potentially lead to adverse reactions, which require close monitoring.

CYP2D6 = CYP2D6 (Homo sapiens, UniProt P10635); test: In vitro metabolism of unconjugated MMAE; conditions: in vitro data
Excerpt: as §1

CYP3A4 = CYP3A4 (Homo sapiens, UniProt P08684); test: In vitro metabolism of unconjugated MMAE; conditions: in vitro data
Excerpt: as §1

P-glycoprotein (P-gp), sequence (P08183 whole entry): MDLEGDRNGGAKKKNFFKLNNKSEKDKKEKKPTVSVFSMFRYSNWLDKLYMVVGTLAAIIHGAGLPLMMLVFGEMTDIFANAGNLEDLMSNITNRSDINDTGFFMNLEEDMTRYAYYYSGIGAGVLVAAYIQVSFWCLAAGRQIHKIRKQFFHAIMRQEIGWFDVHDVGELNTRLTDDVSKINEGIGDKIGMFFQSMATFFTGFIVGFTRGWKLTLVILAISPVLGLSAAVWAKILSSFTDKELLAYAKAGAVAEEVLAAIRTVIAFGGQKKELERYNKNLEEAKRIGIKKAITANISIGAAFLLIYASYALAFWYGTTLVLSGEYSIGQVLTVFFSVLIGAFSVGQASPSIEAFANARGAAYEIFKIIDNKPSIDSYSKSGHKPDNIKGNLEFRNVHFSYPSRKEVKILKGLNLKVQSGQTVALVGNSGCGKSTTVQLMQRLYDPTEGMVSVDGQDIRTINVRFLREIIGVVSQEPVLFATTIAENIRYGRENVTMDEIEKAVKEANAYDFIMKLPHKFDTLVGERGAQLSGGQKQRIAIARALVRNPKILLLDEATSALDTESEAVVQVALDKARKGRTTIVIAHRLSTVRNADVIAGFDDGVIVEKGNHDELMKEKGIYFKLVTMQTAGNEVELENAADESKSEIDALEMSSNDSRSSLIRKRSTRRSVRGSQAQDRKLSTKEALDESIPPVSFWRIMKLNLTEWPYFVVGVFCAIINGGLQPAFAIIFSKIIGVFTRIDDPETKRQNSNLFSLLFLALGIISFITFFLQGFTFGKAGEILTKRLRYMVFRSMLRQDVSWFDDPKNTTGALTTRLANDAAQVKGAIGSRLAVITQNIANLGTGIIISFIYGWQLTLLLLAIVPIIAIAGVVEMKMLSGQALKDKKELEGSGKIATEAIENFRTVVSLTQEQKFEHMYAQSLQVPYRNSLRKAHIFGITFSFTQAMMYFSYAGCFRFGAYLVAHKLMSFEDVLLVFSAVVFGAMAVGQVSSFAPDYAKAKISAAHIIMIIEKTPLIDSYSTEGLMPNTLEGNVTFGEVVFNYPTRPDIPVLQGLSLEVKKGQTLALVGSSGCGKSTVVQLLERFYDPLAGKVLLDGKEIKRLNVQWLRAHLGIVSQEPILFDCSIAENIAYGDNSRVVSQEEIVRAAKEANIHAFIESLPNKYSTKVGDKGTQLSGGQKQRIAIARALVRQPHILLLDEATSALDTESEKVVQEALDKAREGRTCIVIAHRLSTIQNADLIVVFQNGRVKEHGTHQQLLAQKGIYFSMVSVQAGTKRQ
CYP2D6, sequence (P10635 whole entry): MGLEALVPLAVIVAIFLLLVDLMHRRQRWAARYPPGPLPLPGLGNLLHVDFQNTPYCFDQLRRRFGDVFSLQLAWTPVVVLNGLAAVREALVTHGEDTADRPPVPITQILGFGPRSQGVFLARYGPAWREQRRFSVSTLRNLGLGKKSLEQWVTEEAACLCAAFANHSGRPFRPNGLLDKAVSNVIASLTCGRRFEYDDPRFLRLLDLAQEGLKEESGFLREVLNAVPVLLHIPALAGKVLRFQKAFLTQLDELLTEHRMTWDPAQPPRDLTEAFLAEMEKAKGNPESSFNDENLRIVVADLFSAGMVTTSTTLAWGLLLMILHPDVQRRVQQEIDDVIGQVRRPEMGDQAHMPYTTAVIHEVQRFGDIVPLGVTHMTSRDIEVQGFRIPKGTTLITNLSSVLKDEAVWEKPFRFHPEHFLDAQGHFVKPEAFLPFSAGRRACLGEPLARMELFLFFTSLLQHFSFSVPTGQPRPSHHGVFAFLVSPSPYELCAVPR
CYP3A4, sequence (P08684 whole entry): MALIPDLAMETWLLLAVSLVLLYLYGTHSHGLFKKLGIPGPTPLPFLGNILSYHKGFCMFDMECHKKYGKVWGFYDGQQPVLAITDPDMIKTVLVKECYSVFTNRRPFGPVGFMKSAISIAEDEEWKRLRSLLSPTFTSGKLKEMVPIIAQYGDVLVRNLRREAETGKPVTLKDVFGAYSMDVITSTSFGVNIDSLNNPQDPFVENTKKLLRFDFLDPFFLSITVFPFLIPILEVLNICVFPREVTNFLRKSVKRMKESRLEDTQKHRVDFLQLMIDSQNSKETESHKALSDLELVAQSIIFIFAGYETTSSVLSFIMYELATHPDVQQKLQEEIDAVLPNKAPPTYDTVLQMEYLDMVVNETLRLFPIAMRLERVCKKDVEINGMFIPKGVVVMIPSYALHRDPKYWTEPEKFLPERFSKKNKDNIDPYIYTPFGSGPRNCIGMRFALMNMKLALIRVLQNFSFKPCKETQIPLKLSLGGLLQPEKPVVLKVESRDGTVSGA

Structure (SMILES): CC[C@H](C)[C@@H]([C@@H](CC(=O)N1CCC[C@H]1[C@H](OC)[C@@H](C)C(=O)N[C@H](C)[C@@H](O)c1ccccc1)OC)N(C)C(=O)[C@@H](NC(=O)[C@@H](NC)C(C)C)C(C)C [MMAE] (H-[NMeV]V[Dil][Dolaproine]-X1)
- P-gp inhibitor status (P-glycoprotein (P-gp)): not a P-gp inhibitor
- P-gp substrate status (P-glycoprotein (P-gp)): P-glycoprotein (P-gp) substrate
- metabolism by CYP2D6 (CYP2D6): to a lesser extent, by CYP2D6
- metabolism by CYP3A4 (CYP3A4): mainly metabolized by CYP3A4
